Values quoted from earlier work as cited in patent publication US7829576B2 (priority 2008, dated 2010).

System: pain intensity
Details: study completers, double-blind placebo-controlled; cited from earlier work

Structure (SMILES)	reduction in pain intensity [%]
CNCCCC12CCC(c3ccccc31)c1ccccc12 [maprotiline]	45
Fc1ccc([C@@H]2CCNC[C@H]2COc2ccc3c(c2)OCO3)cc1 [paroxetine]	26
